# Laboratory results: patent US8669257B2, “Phenazine derivatives and uses thereof as potassium channel modulators” (The Johns Hopkins University, priority 2007, dated 2014)
# “Also recorded” adds a separate entry of the source.
# Legend:
# [1] = test system: mouse skin or heart transplant; assay: Mouse skin or heart transplant models (initial experiments); type: in vivo
# [2] = test system: mouse primary T-cells; assay: IL-2 production from anti-CD3/anti-CD28-stimulated mouse primary T-cells; type: cell-based; conditions: n=3
# [3] = biological target: T1, rat Kv1.2 (Rattus norvegicus, UniProt P63142); assay: Patch-clamp of heterologous rat Kv1.2 expressed in B82 cells; type: cell-based
# T1 construct: expressed in transfected cells; host or cells: B82 cells
# T1 sequence (P63142 whole entry): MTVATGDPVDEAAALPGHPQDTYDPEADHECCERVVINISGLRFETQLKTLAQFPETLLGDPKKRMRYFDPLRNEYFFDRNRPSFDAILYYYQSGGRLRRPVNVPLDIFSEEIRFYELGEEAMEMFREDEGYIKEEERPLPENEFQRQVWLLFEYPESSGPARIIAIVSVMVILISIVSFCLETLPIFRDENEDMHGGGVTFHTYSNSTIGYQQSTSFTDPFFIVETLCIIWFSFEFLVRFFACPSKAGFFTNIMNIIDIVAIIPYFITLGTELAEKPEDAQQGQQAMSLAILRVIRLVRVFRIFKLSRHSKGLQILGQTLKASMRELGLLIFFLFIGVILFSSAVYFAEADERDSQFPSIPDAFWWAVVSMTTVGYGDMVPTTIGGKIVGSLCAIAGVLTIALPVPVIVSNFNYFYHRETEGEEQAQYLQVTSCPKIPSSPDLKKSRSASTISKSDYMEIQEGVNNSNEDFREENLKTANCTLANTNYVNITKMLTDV
# Description: (§1) Patch pipettes, pulled from glass capillaries (inner diameter 1.5 mm, Kimble products) with a horizontal puller (Sutter instruments, Modell P-97), were fire-polished, and had resistances between 2 and 4 MOhm. Patch-clamp experiments were performed in the tight-seal whole-cell configuration at room temperature (22-24° C.). High-resolution current recordings were acquired by a computer-based patch-clamp amplifier system (EPC-9, HEKA). Immediately following establishment of the whole-cell configuration, every two seconds voltage ramps of 50 ms duration spanning the voltage range of −100 to +100 mV for Jurkat T-cells and −150 to +150 mV for HEK293 were delivered from a holding potential (Vh) of −70 mV for Jurkats and 0 mV for HEK293 cells over a period of 300-600 s. […] Capacitive currents and series resistance were determined and corrected before each voltage ramp using the automatic capacitance compensation of the EPC-9. […] Kv1.3 currents in Jurkat T-cells were measured at +80 mV. Heterologously expressed Kv1.1, Kv1.2, Kv1.3, Kv1.5 and Kv3.1 were assessed at +80 mV except in Figure S7, where currents were additionally measured at the more physiological voltage of 0 mV. CRAC currents in HEK293 cells were assessed at −80 mV. […]
# [4] = test system: CRAC channel (CRACM1, CRACM2, CRACM3 with STIM1); assay: Patch-clamp of reconstituted CRAC current in HEK293 cells; type: cell-based; conditions: CRACM1, CRACM2 or CRACM3 with STIM1 in HEK293 cells
# Description: as §1
# [5] = test system: mouse mixed lymphocyte reaction; assay: Murine mixed lymphocyte reaction; type: cell-based; conditions: n=3
# [6] = test system: graft versus host disease; conditions: open label study; cited from earlier work
# [7] = test system: AP-1 luciferase reporter; assay: AP-1 luciferase reporter assay in Jurkat T-cells; type: cell-based, human; conditions: PMA/ionomycin, high concentrations (>1 μM for clofazimine)
# [8] = biological target: T2, Kv1.3 (Homo sapiens, UniProt P22001); assay: Immunofluorescence colocalization in Jurkat T-cells; type: cell-based; conditions: plasma membrane of Jurkat T-cells
# T2 construct: endogenous in cells; host or cells: Jurkat T-cells
# T2 sequence (P22001 whole entry): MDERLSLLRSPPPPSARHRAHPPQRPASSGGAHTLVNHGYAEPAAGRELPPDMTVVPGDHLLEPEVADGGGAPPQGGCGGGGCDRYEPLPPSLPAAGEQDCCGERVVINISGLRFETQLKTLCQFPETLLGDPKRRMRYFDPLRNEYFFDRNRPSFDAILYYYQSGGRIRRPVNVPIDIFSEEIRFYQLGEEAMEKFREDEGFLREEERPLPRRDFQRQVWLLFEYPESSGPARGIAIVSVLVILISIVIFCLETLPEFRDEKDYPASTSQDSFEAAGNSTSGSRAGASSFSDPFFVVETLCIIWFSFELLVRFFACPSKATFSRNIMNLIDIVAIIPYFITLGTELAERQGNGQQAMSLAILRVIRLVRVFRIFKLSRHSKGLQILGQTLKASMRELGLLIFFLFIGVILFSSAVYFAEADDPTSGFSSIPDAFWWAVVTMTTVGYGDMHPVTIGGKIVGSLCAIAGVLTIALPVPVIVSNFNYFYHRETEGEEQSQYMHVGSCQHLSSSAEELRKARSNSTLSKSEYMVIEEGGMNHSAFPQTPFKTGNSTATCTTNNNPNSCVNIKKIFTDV
# Description: Jurkat T-cells treated with clofazimine were centrifuged onto L-lysine-coated coverslips. Cells were fixed with 4% p-formaldehyde for 15 min. The cells were washed in PBS, permeabilized by −20° C. methanol and blocked with 10% donkey serum in PBS. The fixed cells were then incubated with Kv1.3 primary antibody (sc-17239 at 1:100 dilution) for 1 h. Cells were washed in PBS (3×5 min) and incubated with donkey anti-goat Cy5 antibodies for an additional 1 h. Cells were then washed three times in PBS, mounted, and photographed. Mounting was performed using Vectashield mounting medium (Vector Laboratories) and images were captured using either a Zeiss LSM510 confocal microscope. Merged images were compiled using LSM5 Image Examiner or Adobe Photoshop CS.
# [9] = test system: human foreskin graft in Pfp/Rag2−/− mice with human PBL; assay: Human T-cell-mediated human skin graft rejection in immunodeficient mice; type: in vivo, mouse
# From the text: Kv1.3 has been implicated in T-cell activation and has served as a molecular target for developing novel immunosuppressive agents. Given that clofazimine is already used in the clinic, albeit for a completely different indication, we wondered whether it is efficacious in animal models of organ transplantation. […] These negative results are not surprising given that Kv1.3 plays distinct roles in humans and rodents, as it has been shown that Kv1.3 is dispensable in mice due to the up-regulation of other chloride channels. […] To overcome this problem, we turned to a model of reconstituted human T-cell-mediated human skin rejection in immunodeficient mice. We thus transplanted human foreskin into Pfb-Rag2−/− mice that lack T, B and NK cells. Upon healing of the skin graft for about 7 days, a total of 100 million human peripheral blood lymphocytes from an unrelated donor were adoptively transferred into the same animals. The animals were treated orally with either DMSO (control) or clofazimine at 50 mg/kg/day for a total of 10 days (FIG. 5A). For the control group, the transplanted foreskin was rejected with a median survival time of 11 days (FIG. 5B).
# The experimental procedure is similar to that described previously. Clofazimine suspension in olive oil was administered p.o. at 50 mg/kg/day in a total volume of 0.2 ml per administration.
# [10] = biological target: calcium-activated IKCa1 potassium channel (Homo sapiens, UniProt O15554); assay: Activity of IKCa1 channel (data not shown); type: cell-based; conditions: up to 10 μM
# Chain of calcium-activated IKCa1 potassium channel (O15554 whole entry): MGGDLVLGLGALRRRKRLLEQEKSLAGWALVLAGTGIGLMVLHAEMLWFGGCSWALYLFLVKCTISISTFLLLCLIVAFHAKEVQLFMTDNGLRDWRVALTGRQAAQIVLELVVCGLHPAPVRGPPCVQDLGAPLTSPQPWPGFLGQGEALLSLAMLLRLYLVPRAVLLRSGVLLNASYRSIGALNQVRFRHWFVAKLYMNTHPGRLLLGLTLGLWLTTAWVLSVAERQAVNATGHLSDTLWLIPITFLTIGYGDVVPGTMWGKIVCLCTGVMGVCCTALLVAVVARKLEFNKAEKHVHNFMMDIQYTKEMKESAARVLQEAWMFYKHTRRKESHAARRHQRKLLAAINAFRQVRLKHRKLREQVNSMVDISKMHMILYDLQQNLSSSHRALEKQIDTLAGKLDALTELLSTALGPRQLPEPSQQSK
# [11] = test system: calcineurin; assay: Calcineurin enzymatic activity in vitro; type: biochemical; conditions: substrates para-nitrophenylphosphate or immunoprecipitated NFATc2
# [12] = test system: calcium influx in Jurkat T-cells; assay: Calcium imaging assay: store-depletion induced calcium influx in Jurkat T-cells; type: cell-based, human; conditions: thapsigargin then 2 mM Ca2+; clofazimine preincubated 5 min
# Description: JurkaT-cells were attached to L-lysine-coated glass dishes (MatTek). Cells were loaded with fura-2-AM (Invitrogen_F-1201) for 45 min before they were washed sequentially with growth medium and Ca^2+-free HBSS. Fluorescence excitation wavelengths were set at 350 and 380 nm, respectively, on a Zeiss Axiovert 200M microscope while emission wavelength was set at 510 nm. Changes in intracellular calcium concentrations were determined by fluorescence intensity ratio ([…]/F380).
smiles,measurement,setting,value
"CC(C)/N=c1\cc2n(-c3ccc(Cl)cc3)c3ccccc3nc-2cc1Nc1ccc(Cl)cc1 [clofazimine, Clofazimine]",beneficial effects in mouse skin or heart transplant models,[1],failed to show any beneficial effects
same,inhibition of IL-2 production in primary mouse T-cells,[2],failed to observe a dose-dependent inhibition
same,"block of current, rat Kv1.2",[3]; 10 μM,less than 50%
same,IC50,[3]; inferred from block at 10 μM,> 10 µM
same,effect on reconstituted CRAC current,[4],no effects
same,effect on reconstituted CRAC current,[4]; listed as Clofazimine,without affecting
same,effect on murine mixed lymphocyte reaction,[5],failed to observe a dose-dependent inhibition; also recorded: Biphasic effects
same,patients able to decrease the amount of other medication,[6],~25%
same,effect on AP-1 luciferase reporter,[7],"enhanced, rather than inhibited"
same,effect on AP-1 luciferase reporter,[7]; listed as Clofazimine,significantly enhances
same,subcellular localization relative to Kv1.3,[8],same subcellular localization pattern
same,subcellular localization relative to Kv1.3,[8]; listed as Clofazimine,colocalizes with Kv1.3
same,mean survival time of transplanted human skin,"[9]; 50 mg/kg/day orally for 10 days, n=5",35 days
same,effect on human T-cell-mediated skin graft rejection,[9]; immunodeficient mice,inhibits human T-cell-mediated skin graft rejection
same,effect on IKCa1 channel activity,[10],remained unaffected
same,effect on enzymatic activity of calcineurin in vitro,[11],no effect on the enzymatic activity; also recorded: does not inhibit the protein phosphatase activity
same,effect on calcium entry,[12],inhibited by clofazimine in a heterogeneous fashion; also recorded: only about a quarter of cells are responsive
